Source: ChEMBL document CHEMBL1156828, “Pyridinylquinoxalines and pyridinylpyridopyrazines as lead compounds for novel p38 alpha mitogen-activated protein kinase inhibitors” (J Med Chem, 2010)

What follows are compounds tested against T1, Mitogen-activated protein kinase 14 (Homo sapiens, UniProt Q16539) (assay: Inhibition of p38alpha-mediated ATF2 phosphorylation at 10 uM in presence of ATP).
T1 sequence (Q16539 whole entry): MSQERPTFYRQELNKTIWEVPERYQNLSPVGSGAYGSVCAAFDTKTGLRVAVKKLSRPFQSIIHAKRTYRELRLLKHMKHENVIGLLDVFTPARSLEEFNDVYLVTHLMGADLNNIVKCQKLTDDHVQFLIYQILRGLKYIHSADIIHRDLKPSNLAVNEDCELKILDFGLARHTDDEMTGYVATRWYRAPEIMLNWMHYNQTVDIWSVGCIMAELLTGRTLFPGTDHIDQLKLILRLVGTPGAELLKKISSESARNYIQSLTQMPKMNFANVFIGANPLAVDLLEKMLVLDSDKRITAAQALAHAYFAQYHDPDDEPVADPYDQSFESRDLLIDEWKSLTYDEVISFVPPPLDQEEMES

| inhibition | SMILES |
| --- | --- |
| 9% | Fc1ccc(-c2nc3ccccc3nc2-c2ccnc(NCc3ccccc3)c2)cc1 |
| 37% | Fc1ccc(-c2nc3cc(Cl)c(Cl)cc3nc2-c2ccnc(NCc3ccccc3)c2)cc1 |
| 39% | Fc1ccc(-c2nc3cc(Cl)c(Cl)cc3nc2-c2ccncc2)cc1 |
| 46% | Fc1ccc(-c2nc3cccnc3nc2-c2ccncc2)cc1 |
| 33% | COc1ccc2nc(-c3ccc(F)cc3)c(-c3ccncc3)nc2c1 |

The compounds below were run against Mitogen-activated protein kinase 10 (Homo sapiens, UniProt P53779) (assay: Inhibition of JNK3 by nonradioactive JNK3 assay).
Chain of Mitogen-activated protein kinase 10 (P53779 whole entry): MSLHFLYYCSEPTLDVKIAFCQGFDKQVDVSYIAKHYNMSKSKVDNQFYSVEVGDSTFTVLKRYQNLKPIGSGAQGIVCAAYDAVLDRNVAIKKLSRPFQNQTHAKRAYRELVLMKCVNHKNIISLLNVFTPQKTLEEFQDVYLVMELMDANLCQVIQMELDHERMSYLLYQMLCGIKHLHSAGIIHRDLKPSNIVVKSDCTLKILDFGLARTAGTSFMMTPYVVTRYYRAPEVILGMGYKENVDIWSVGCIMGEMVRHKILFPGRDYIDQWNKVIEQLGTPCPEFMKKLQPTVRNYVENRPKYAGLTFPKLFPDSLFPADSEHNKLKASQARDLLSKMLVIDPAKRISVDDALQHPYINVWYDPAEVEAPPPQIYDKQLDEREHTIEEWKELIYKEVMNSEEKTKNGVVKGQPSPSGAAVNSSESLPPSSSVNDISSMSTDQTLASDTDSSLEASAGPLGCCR

| IC50 | SMILES |
| --- | --- |
| 3.95 µM | CC(C)Nc1cc(-c2nc3ccccc3nc2-c2ccc(F)cc2)ccn1 |

The compounds below were run against T1, Mitogen-activated protein kinase 14 (assay: Inhibition of p38alpha-mediated ATF2 phosphorylation in presence of ATP).

| IC50 | SMILES |
| --- | --- |
| 431 nM | C[C@H](Nc1cc(-c2nc3ccccc3nc2-c2ccc(F)cc2)ccn1)c1ccccc1 |
| 38 nM | CC(C)Nc1cc(-c2nc3cccnc3nc2-c2ccc(F)cc2)ccn1 |
| 9460 nM | CC(C)C(C)Nc1cc(-c2nc3cc(Cl)c(Cl)cc3nc2-c2ccc(F)cc2)ccn1 (stereo not given) |
| 3700 nM | Cc1cc2nc(-c3ccncc3)c(-c3ccc(F)cc3)nc2cc1C |
| 259 nM | Cc1cc2nc(-c3ccc(F)cc3)c(-c3ccnc(N[C@H]4CC[C@H](O)CC4)c3)nc2cc1C |
| 576 nM | CC(C)[C@H](C)Nc1cc(-c2nc3ccccc3nc2-c2ccc(F)cc2)ccn1 |
| 114 nM | CCC(C)Nc1cc(-c2nc3ccccc3nc2-c2ccc(F)cc2)ccn1 (stereo not given) |
| 81 nM | CC(C)Nc1cc(-c2nc3ccccc3nc2-c2ccc(F)cc2)ccn1 |
| 3190 nM | Fc1ccc(-c2nc3ncccc3nc2-c2ccncc2)cc1 |
| 720 nM | CC(Nc1cc(-c2nc3ccccc3nc2-c2ccc(F)cc2)ccn1)c1ccccc1 (stereo not given) |
| 790 nM | CC(C)C(C)Nc1cc(-c2nc3ccccc3nc2-c2ccc(F)cc2)ccn1 (stereo not given) |
| 3150 nM | Fc1ccc(-c2nc3ccccc3nc2-c2ccncc2)cc1 |
| 4790 nM | C[C@@H](Nc1cc(-c2nc3ccccc3nc2-c2ccc(F)cc2)ccn1)c1ccccc1 |
| 238 nM | Cc1cc2nc(-c3ccc(F)cc3)c(-c3ccnc(NC(C)C)c3)nc2cc1C |
| 211 nM | O[C@H]1CC[C@H](Nc2cc(-c3nc4ccccc4nc3-c3ccc(F)cc3)ccn2)CC1 |
| 608 nM | O[C@H]1CC[C@H](Nc2cc(-c3nc4cc(Cl)c(Cl)cc4nc3-c3ccc(F)cc3)ccn2)CC1 |
| 642 nM | CC(C)CNc1cc(-c2nc3ccccc3nc2-c2ccc(F)cc2)ccn1 |
| 1530 nM | Cc1cc2nc(-c3ccc(F)cc3)c(-c3ccnc(NCc4ccccc4)c3)nc2cc1C |
| 412 nM | CC(C)Nc1cc(-c2nc3cc(Cl)c(Cl)cc3nc2-c2ccc(F)cc2)ccn1 |
| 333 nM | CC(C)Nc1cc(-c2nc3ncccc3nc2-c2ccc(F)cc2)ccn1 |
| 6140 nM | COc1ccc2nc(-c3ccncc3)c(-c3ccc(F)cc3)nc2c1 |
| 1590 nM | CC(C)[C@@H](C)Nc1cc(-c2nc3ccccc3nc2-c2ccc(F)cc2)ccn1 |
| 595 nM | CCC(C)Nc1cc(-c2nc3cc(C)c(C)cc3nc2-c2ccc(F)cc2)ccn1 (stereo not given) |
| 1380 nM | Cc1cc2nc(-c3ccc(F)cc3)c(-c3ccnc(NC(C)C(C)C)c3)nc2cc1C (stereo not given) |
